We go through eight compounds from ChEMBL document CHEMBL1201862, “PubChem BioAssay data set” (2004).

Among the test systems are OVCAR-5; LOX IMVI; UACC-62; SK-OV-3; MDA-MB-435; M14; PC-3; A498; ACHN; SNB-75; CAKI-1; SW-620; K562; HT-29; NCI-H522; RXF 393; COLO 205; A549; SF-268; HOP-62.
Holding throughout (assay): NCI-60 cell line screen, 48 h

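How tested: cells in 96-well plates exposed to compound for 48 hours at five concentrations. GI50: concentration for 50% inhibition of growth.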 Calls of active or inactive are those of the source. Rule as the data show it: active = GI50 up to about 1.1 µM and inactive = higher.

For the compound `COC12CCCN1c1ccn(Cc3ccccc3)c(=O)c1C2=O` (centres undefined), the GI50 with OVCAR-5, with LOX IMVI, with UACC-62, in the experiment on SK-OV-3, in the experiment on MDA-MB-435 and with M14 was > 100 µM (inactive) throughout. Also, the GI50 in the experiment with PC-3, in the experiment with A498, with ACHN, with SNB-75, with CAKI-1 and with SW-620 was > 100 µM (inactive) in each case. Besides, the GI50 with K562, with HT-29, with NCI-H522, in the experiment with RXF 393, in the experiment on COLO 205 and with A549 was > 100 µM (inactive) throughout. For the same compound, the GI50 in the experiment with SF-268 is > 100 µM (inactive).
Turning to `O=C(Cc1cc(=O)oc2cc(O)ccc12)N/N=C/c1ccc(N(CCCl)CCCl)cc1`, the GI50 in the experiment on OVCAR-5 was 25.6 µM (inactive); with LOX IMVI, 16.6 µM (inactive); in the experiment with HOP-62, 23.7 µM (inactive); in the experiment on UACC-62 it was 6.19 µM (inactive); in the experiment on MDA-MB-435 it was 19.8 µM (inactive); with M14, 19.5 µM (inactive). Moreover, the GI50 was 17.9 µM (inactive) with PC-3; 22.3 µM (inactive) in the experiment on A498; 15.8 µM (inactive) with ACHN; 21.7 µM (inactive) in the experiment on SNB-75; 12.7 µM (inactive) in the experiment with CAKI-1; 34.1 µM (inactive) in the experiment on SW-620. For the same compound, the GI50 in the experiment on K562 was 23.5 µM (inactive); in the experiment with HT-29, 22.2 µM (inactive); in the experiment on NCI-H522 it was 20.9 µM (inactive); in the experiment on RXF 393, 16.6 µM (inactive); in the experiment on COLO 205, 29.2 µM (inactive); in the experiment with A549, 16.1 µM (inactive). For the same compound, the GI50 with SF-268 is 13.4 µM (inactive).
As for `CC1=CCS(=O)(=O)C1C(O)C1=C(C)CCCC1(C)C` (centres undefined), the GI50 is > 100 µM (inactive) with OVCAR-5; 62.2 µM (inactive) with LOX IMVI; > 100 µM (inactive) in the experiment on HOP-62; 87.1 µM (inactive) in the experiment with UACC-62; > 100 µM (inactive) with SK-OV-3; 63.4 µM (inactive) with MDA-MB-435. Moreover, the GI50 was 69.2 µM (inactive) in the experiment on M14; 55.5 µM (inactive) in the experiment with PC-3; 0.0395 µM (active) with A498; > 100 µM (inactive) in the experiment on ACHN; 98.4 µM (inactive) in the experiment with SNB-75; > 100 µM (inactive) in the experiment with CAKI-1. Further, the GI50 in the experiment with SW-620 is > 100 µM (inactive); with K562 it was 43.1 µM (inactive); with HT-29 it was > 100 µM (inactive); in the experiment with NCI-H522 it was 58.6 µM (inactive); in the experiment on RXF 393 it was > 100 µM (inactive); with COLO 205, 60.1 µM (inactive). For the same compound, in the experiment on A549, the GI50 is 68.5 µM (inactive).
In the case of `Oc1c(CN2CCN(c3ccccc3)CC2)cc(Br)c2cccnc12`, the GI50 in the experiment on OVCAR-5 was 4.07 µM (inactive); in the experiment with LOX IMVI, 0.52 µM (active); in the experiment with HOP-62 it was 1.33 µM (inactive); in the experiment with UACC-62 it was 1.01 µM (active); in the experiment with SK-OV-3, 3.21 µM (inactive); with MDA-MB-435, 1.46 µM (inactive). Also, the GI50 in the experiment with M14 was 1.14 µM (inactive); in the experiment with PC-3, 4.22 µM (inactive); in the experiment with A498, 7.46 µM (inactive); with ACHN it was 0.621 µM (active); with SNB-75, 3.78 µM (inactive); with CAKI-1 it was 1.21 µM (inactive). Moreover, the GI50 with SW-620 was 1.4 µM (inactive); with HT-29, 10.9 µM (inactive); in the experiment with NCI-H522 it was 0.555 µM (active); in the experiment with RXF 393 it was 1.46 µM (inactive); in the experiment with COLO 205, 29.6 µM (inactive); in the experiment with A549, 1.43 µM (inactive). The GI50 with SF-268 is 0.893 µM (active).
As for `COC(O)C(=O)c1c2c(cc3c1CC1(Cc4cc5c(cc4C1)CCC5)C3)CCC2` (centres undefined), the GI50 is 18.2 µM (inactive) in the experiment on OVCAR-5; 7.13 µM (inactive) with LOX IMVI; 15.9 µM (inactive) in the experiment with HOP-62; 17.4 µM (inactive) in the experiment on SK-OV-3; 2.7 µM (inactive) in the experiment with MDA-MB-435; 16.6 µM (inactive) in the experiment on M14. Besides, the GI50 in the experiment with PC-3 was 16.7 µM (inactive); in the experiment on A498, 17.9 µM (inactive); in the experiment on ACHN it was 15.7 µM (inactive); in the experiment on SNB-75, 17.1 µM (inactive); in the experiment on CAKI-1, 20.5 µM (inactive); in the experiment with SW-620, 16.2 µM (inactive). The GI50 was 13.2 µM (inactive) in the experiment on K562; 9.33 µM (inactive) in the experiment with HT-29; 17.7 µM (inactive) in the experiment on NCI-H522; 14.8 µM (inactive) with RXF 393; 16.8 µM (inactive) with A549; 20.5 µM (inactive) with SF-268.
Take `Cc1cc2[nH]c3c(C#N)c(-c4ccccc4)c(/C=N/c4ccc(F)cc4)c(=O)n3c2cc1C`: the GI50 with OVCAR-5 was > 100 µM (inactive); in the experiment with LOX IMVI, > 100 µM (inactive); in the experiment with HOP-62, > 100 µM (inactive); with SK-OV-3, > 100 µM (inactive); in the experiment with MDA-MB-435 it was 91.2 µM (inactive); with M14, > 100 µM (inactive). The GI50 in the experiment on PC-3 is > 100 µM (inactive); in the experiment with A498, > 100 µM (inactive); in the experiment on ACHN it was > 100 µM (inactive); in the experiment on SNB-75 it was > 100 µM (inactive); in the experiment on CAKI-1, > 100 µM (inactive); with SW-620 it was 62.5 µM (inactive). Also, the GI50 in the experiment with NCI-H522 was 45.5 µM (inactive); in the experiment with RXF 393 it was 91.2 µM (inactive); with COLO 205 it was > 100 µM (inactive); with A549, 49 µM (inactive); in the experiment on SF-268 it was 99.5 µM (inactive).
`O=C1NC(=O)C(c2c[nH]c3cc(Br)ccc23)=C1c1cnc[nH]1`: the GI50 is > 100 µM (inactive) with OVCAR-5; 19.5 µM (inactive) with LOX IMVI; 19.1 µM (inactive) in the experiment on HOP-62; 13.1 µM (inactive) in the experiment on SK-OV-3; 25.1 µM (inactive) in the experiment on MDA-MB-435; 51.6 µM (inactive) in the experiment with M14. For the same compound, the GI50 in the experiment with PC-3 was 24.7 µM (inactive); in the experiment on A498 it was 14.5 µM (inactive); in the experiment on ACHN, 43.7 µM (inactive); in the experiment on SNB-75, > 100 µM (inactive); in the experiment on CAKI-1, 13.2 µM (inactive); in the experiment with SW-620, 55.8 µM (inactive). The GI50 is 25.6 µM (inactive) in the experiment on K562; 26.2 µM (inactive) in the experiment with HT-29; 31.8 µM (inactive) in the experiment on NCI-H522; 39 µM (inactive) in the experiment with RXF 393; 15.6 µM (inactive) with COLO 205; 53.1 µM (inactive) with A549. For the same compound, the GI50 with SF-268 was 29.5 µM (inactive).
As for `O=C(OCCC12CC3CC(CC(C3)C1)C2)c1ccc(NCc2cc(O)ccc2O)cc1`, the GI50 in the experiment on LOX IMVI is 0.757 µM (active); in the experiment on HOP-62 it was 3.56 µM (inactive); in the experiment on UACC-62 it was 1.61 µM (inactive); with SK-OV-3, 2.91 µM (inactive); with MDA-MB-435 it was 1.26 µM (inactive); in the experiment on M14 it was 1.24 µM (inactive). The GI50 in the experiment on PC-3 is 0.573 µM (active); with A498 it was 1.9 µM (inactive); in the experiment on ACHN, 1.63 µM (inactive); in the experiment with SNB-75 it was 1.38 µM (inactive); with CAKI-1 it was 0.363 µM (active); with SW-620, 1.63 µM (inactive). Besides, the GI50 is 1.66 µM (inactive) in the experiment with K562; 1.94 µM (inactive) with HT-29; 0.148 µM (active) in the experiment with NCI-H522; 0.638 µM (active) in the experiment on RXF 393; 0.34 µM (active) with COLO 205; 2.14 µM (inactive) in the experiment with A549. Moreover, in the experiment with SF-268, the GI50 was 2.49 µM (inactive).
